Test results: ChEMBL document CHEMBL1127184, “Preparation of the enantiomers of the analgesic E-3710” (1993)

Assays:
Assay type in all cases: functional
[1] = test system: Mus musculus; assay: Analgesic activity by writhing test in mice after intraveneous administration; details: iv
[2] = test system: Mus musculus; assay: Analgesic activity by writhing test in mice after peroral administration; details: po
[3] = test system: Mus musculus; assay: Analgesic activity by writhing test in mice after subcutaneous administration; details: sc

Row | Compound | ED50 [1] [mg/kg] | ED50 [2] [mg/kg] | ED50 [3] [mg/kg]
1 | CN(C)CCO[C@@H](c1ccccc1)c1ccnn1C | 28 | 67 | 127
2 | CN(C)CCO[C@H](c1ccccc1)c1ccnn1C | 13 | 37 | 21
3 | CN(C)CCOC(c1ccccc1)c1ccnn1C (racemic) [CIZOLIRTINE] | 16 | 56 | 70
4 | O=C([O-])Cc1ccccc1Nc1c(Cl)cccc1Cl.[Na+] [DICLOFENAC SODIUM] |  | 87 | 
